Experimental data reported in patent US9464106B2, “Oligonucleotides useful for detecting and analyzing nucleic acids of interest” (Exiqon A/S, priority 2002, dated 2016).
l = locked nucleic acid (LNA); [5mC] = 5-methylcytosine; d = 2'-deoxy (DNA)

System: yeast HSP78 (YDR258C) sequence
Test: Duplex melting temperatures of HSP78 25-mer capture probes (UV spectrophotometer)
Details: 25-mer capture probe duplex with complementary target; design PM = perfectly matched, MM = single mismatch; DNA, LNA_T (T) or LNA_TC (TC) substituted

12733 (DNA GACAGCCTCAGTAAATTGGCCACCA; sugars from the 5' end ddlddldldddddddlldddlddld, [5mC] at 3, 6, 21, 24, backbone not given here) [compound 12733]
Average duplex melting temp.: 77.4 °C

12800 (DNA ACCATCATCACCCAACCTTGTGTCG; sugars from the 5' end dlddlddldddllddddlddlddld, [5mC] at 2, 12, 13, 24, backbone not given here; further chemistry not fully specified) [compound 12800]
Average duplex melting temp.: 74.2 °C

12789 (DNA TCAGTTAGCCAATCCTTCGCTTCAT; sugars from the 5' end ldddllddddddlddlldddllddd, backbone not given here; further chemistry not fully specified) [compound 12789]
Average duplex melting temp.: 75.7 °C

12754 (DNA TGGCCTAGGGAATCGGTCAGCTTAC; DNA, backbone not given here; further chemistry not fully specified) [compound 12754]
Average duplex melting temp.: 70.1 °C

12752 (DNA ACCATCATCACCCAACTTTGTGTCG; DNA, backbone not given here; further chemistry not fully specified) [compound 12752]
Average duplex melting temp.: 67.5 °C

12747 (DNA CACTCTAACAGTATCGCCGTTTCTA; sugars from the 5' end ldldldddldddddddlddldllld, [5mC] at 1, 3, 5, 9, 17, 23, backbone not given here) [compound 12747]
Average duplex melting temp.: 75.2 °C

12723 (DNA CACTCTAACAGTATCGCCGTTTCTA; sugars from the 5' end dddldldddddddddddddllldld, backbone not given here) [compound 12723]
Average duplex melting temp.: 69.7 °C

12703 (DNA CCCAACTTTGTGACGTTTAATAAAA; DNA, backbone not given here) [compound 12703]
Average duplex melting temp.: 56.2 °C

12816 (DNA TTTGGTAGCACGACAAGCTTAGTAT; sugars from the 5' end ldlddlddldlddldddldlddldd, all C 5-methyl, backbone not given here; further chemistry not fully specified) [compound 12816]
Average duplex melting temp.: 79 °C

12808 (DNA GACCTAAGAACATAAAGCTGGCAAT; sugars from the 5' end ddllldddddldlddddllddlddd, all C 5-methyl, backbone not given here; further chemistry not fully specified) [compound 12808]
Average duplex melting temp.: 78.9 °C

12690 (DNA ATAGCAGCAATGCCCTCGTCTTGGC; DNA, backbone not given here) [compound 12690]
Average duplex melting temp.: 62.9 °C

12741 (DNA TCAGTTAGCCAAACCTTCGCTTCAT; sugars from the 5' end dlddlddddlddddddlddlddldd, [5mC] at 2, 10, 20, 23, backbone not given here) [compound 12741]
Average duplex melting temp.: 70.6 °C

12706 (DNA TGGCCTAGGGAAACGGTCAGCTTAC; DNA at ACG, LNA at T, backbone not given here) [compound 12706]
Average duplex melting temp.: 71.6 °C

12761 (DNA AAATAGCAGCAATGGCCTCGTCTTG; DNA, backbone not given here; further chemistry not fully specified) [compound 12761]
Average duplex melting temp.: 69.2 °C

12798 (DNA ATTGACCTCAAAACTTTCTTGGATA; DNA at ACG, LNA at T, backbone not given here; further chemistry not fully specified) [compound 12798]
Average duplex melting temp.: 70.2 °C

12702 (DNA ATTGACCTCAAATCTTTCTTGGATA; DNA, backbone not given here) [compound 12702]
Average duplex melting temp.: 54.5 °C

12760 (DNA GACCTAAGAACATAAAGCTGGCAAT; DNA, backbone not given here; further chemistry not fully specified) [compound 12760]
Average duplex melting temp.: 63.5 °C

12766 (DNA GTTGCCATGGAGTTCAAAATCTGTC; DNA, backbone not given here) [compound 12766]
Average duplex melting temp.: 65.8 °C

12735 (DNA ATCAAATAGGAAATCAGCTAAAGCC; sugars from the 5' end dlldddldddddddlddllddddld, [5mC] at 3, 15, 18, 24, backbone not given here) [compound 12735]
Average duplex melting temp.: 64.6 °C

12780 (DNA GAAACATCGGGGTGCGCTTTTTCAA; DNA at ACG, LNA at T, backbone not given here; further chemistry not fully specified) [compound 12780]
Average duplex melting temp.: 78 °C

12756 (DNA GAAACATCGGGGTGCGCTTTTTCAA; DNA, backbone not given here; further chemistry not fully specified) [compound 12756]
Average duplex melting temp.: 68.7 °C

12708 (DNA GAAACATCGGGGAGCGCTTTTTCAA; sugars from the 5' end d6 l1 d10 l5 d3, backbone not given here) [compound 12708]
Average duplex melting temp.: 69.9 °C

12732 (DNA GAAACATCGGGGAGCGCTTTTTCAA; sugars from the 5' end ddddldllddddddldddddldldd, [5mC] at 5, 8, 15, 23, backbone not given here) [compound 12732]
Average duplex melting temp.: 74.8 °C

12705 (DNA CAATGATCGTGTAACGGAAATCAAC; sugars from the 5' end dddlddlddlddddddddddldddd, backbone not given here) [compound 12705]
Average duplex melting temp.: 65.2 °C

12693 (DNA TCAGTTAGCCAAACCTTCGCTTCAT; DNA, backbone not given here) [compound 12693]
Average duplex melting temp.: 61.4 °C

12689 (DNA AAATAGCAGCAAAGGCCTCGTCTTG; DNA, backbone not given here) [compound 12689]
Average duplex melting temp.: 64 °C

12787 (DNA GCAATGGCCTCGTCTTGGCCAACGA; DNA at ACG, LNA at T, backbone not given here; further chemistry not fully specified) [compound 12787]
Average duplex melting temp.: 80.8 °C

12810 (DNA ATAGCAGCAATGGCCTCGTCTTGGC; sugars from the 5' end dlddldddddlddldldddldlddd, [5mC] at 5, 14, 20, backbone not given here; further chemistry not fully specified) [compound 12810]
Average duplex melting temp.: 83 °C

12782 (DNA CCGATTAAACGAGAGACAGTATGCT; sugars from the 5' end ddddlldddddddddddddldlddd, backbone not given here; further chemistry not fully specified) [compound 12782]
Average duplex melting temp.: 72.2 °C

12806 (DNA CCGATTAAACGAGAGACAGTATGCT; sugars from the 5' end llddlldddlddddddlddldldld, all C 5-methyl, backbone not given here; further chemistry not fully specified) [compound 12806]
Average duplex melting temp.: 79.4 °C

12791 (DNA AGACGTACAGCATCAGAAATAGCAG; DNA at ACG, LNA at T, backbone not given here; further chemistry not fully specified) [compound 12791]
Average duplex melting temp.: 71.4 °C

12777 (DNA CAATGATCGTGTTACGGAAATCAAC; sugars from the 5' end dddlddlddlddldddddddldddd, backbone not given here; further chemistry not fully specified) [compound 12777]
Average duplex melting temp.: 72.2 °C

12785 (DNA AAATAGCAGCAATGGCCTCGTCTTG; DNA at ACG, LNA at T, backbone not given here; further chemistry not fully specified) [compound 12785]
Average duplex melting temp.: 77.2 °C

12745 (DNA ATAAAGCTGGCATTAGGTCTCTTTT; sugars from the 5' end dlddddllddlddddddllldllld, [5mC] at 7, 11, 19, backbone not given here) [compound 12745]
Average duplex melting temp.: 74 °C

12807 (DNA ATCAAATAGGAATTCAGCTAAAGCC; sugars from the 5' end dlldddldddddldlddllddddld, [5mC] at 3, 15, 18, 24, backbone not given here; further chemistry not fully specified) [compound 12807]
Average duplex melting temp.: 71.4 °C

12792 (DNA TTTGGTAGCACGACAAGCTTAGTAT; sugars from the 5' end lllddlddddddddddddllddldd, backbone not given here; further chemistry not fully specified) [compound 12792]
Average duplex melting temp.: 74.2 °C

12698 (DNA TTTTTCGGCCAATCGATCTTGAATT; DNA, backbone not given here) [compound 12698]
Average duplex melting temp.: 58.8 °C

12680 (DNA ACCATCATCACCGAACTTTGTGTCG; DNA, backbone not given here) [compound 12680]
Average duplex melting temp.: 63.6 °C

12804 (DNA GAAACATCGGGGTGCGCTTTTTCAA; sugars from the 5' end ddddldllddddldldddddldldd, [5mC] at 5, 8, 15, 23, backbone not given here; further chemistry not fully specified) [compound 12804]
Average duplex melting temp.: 83.2 °C

12722 (DNA TTTTTCGGCCAATCGATCTTGAATT; sugars from the 5' end ldllldddddddddddldlldddld, backbone not given here) [compound 12722]
Average duplex melting temp.: 65.9 °C

12694 (DNA GTTGCCATGGAGATCAAAATCTGTC; DNA, backbone not given here) [compound 12694]
Average duplex melting temp.: 60 °C
